Experimental data as given in patent US20160367537A1, “COMPOSITIONS AND METHODS FOR THE TREATMENT AND MANAGEMENT OF STEATOSIS IN HUMAN LIVER” (WAKE FOREST UNIVERSITY HEALTH SCIENCES, priority 2013, published 2016).

What was measured:
[1] = Absorption after oral intake; settings: given in the diet
[2] = Stability in the diet; assay type: physicochemical; settings: diet admixture
[3] = molecular target: T1, SOAT2 (Homo sapiens, UniProt O75908); assay: Specificity for SOAT2 compared to SOAT1
T1 sequence (O75908 1-522): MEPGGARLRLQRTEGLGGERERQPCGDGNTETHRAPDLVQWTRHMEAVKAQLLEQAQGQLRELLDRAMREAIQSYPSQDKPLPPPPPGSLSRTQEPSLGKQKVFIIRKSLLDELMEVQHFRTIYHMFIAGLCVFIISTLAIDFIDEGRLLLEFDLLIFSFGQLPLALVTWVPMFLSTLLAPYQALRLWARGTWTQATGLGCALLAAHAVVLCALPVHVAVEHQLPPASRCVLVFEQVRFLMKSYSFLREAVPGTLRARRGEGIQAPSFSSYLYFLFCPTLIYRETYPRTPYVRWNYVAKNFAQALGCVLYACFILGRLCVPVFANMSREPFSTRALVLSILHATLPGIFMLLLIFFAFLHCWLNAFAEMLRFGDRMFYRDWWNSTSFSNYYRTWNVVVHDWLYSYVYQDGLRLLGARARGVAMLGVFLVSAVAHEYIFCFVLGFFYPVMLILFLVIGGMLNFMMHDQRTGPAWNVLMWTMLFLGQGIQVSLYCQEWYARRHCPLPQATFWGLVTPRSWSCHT

[4] = test system: lysosomal acid lipase deficient (LAL−/−) mice; assay: Mouse model of lysosomal acid lipase deficiency, PRD125 as diet admixture; assay type: in vivo
Procedure: In the present example, hepatic lipid concentrations and content in a lysosomal acid lipase deficient (LAL^−/−) mouse model were determined in the presence and absence of selective SOAT2 inhibitors. The data are for male lysosomal acid lipase deficient mice on a FVB background. The mice were fed a chow diet for 21 days. During the subsequent 52 or 53 days, 5 mice were fed the chow diet without drug and 3 of 5 to be studied were fed a chow diet supplemented with PRD125 at a dose of 10 mg/kg/day. Animals were ex-sanguinated at 52 days and the blood plasma was collected in EDTA and frozen in liquid nitrogen. The livers, small intestine, and spleen were flushed with saline and rinsed, then also snap frozen in liquid nitrogen. All organs were weighed, and after freezing, approximately 25 mg of tissue was extracted in chloroform methanol, 2:1, for subsequent lipid determinations. Free and total cholesterol was measured enzymatically and esterified cholesterol was determined by difference. Aliquots of the terminal plasma were used for measurement of tissue enzymes.
Mice were studied starting at 21 days of age and studied for 52 to 53 days. Treatment with PRD125 was at 10 mg/kg/day and the compound was given as a diet admixture.

Cc1ccccc1[C@@H]1OCC2(C)C3C[C@H](OC(=O)c4ccc(C#N)cc4)[C@@]4(C)Oc5cc(-c6cccnc6)oc(=O)c5[C@H](O)C4[C@@]3(C)CC[C@@H]2O1 (some centres unmarked) [PRD125]
absorption [1]: easily absorbed | stability in the diet [2]: stable | specificity to SOAT2 compared to SOAT1 [3]: over 5000 fold | decrease of liver cholesterol content versus untreated mice ([4]; LAL−/− mice, 10 mg/kg/day as diet admixture): 65% | serum enzyme levels ([4]; male LAL−/− mice, 10 mg/kg/day as diet admixture, terminal plasma): reduced | liver cholesterol esters ([4]; male LAL−/− mice, FVB background, 10 mg/kg/day as diet admixture, from 21 to 52 or 53 days of age): significantly reduced | oral effectiveness ([4]; oral, does not need booster injections): effective orally | cholesterol content of liver ([4]; treated LAL−/− mice, 10 mg/kg/day as diet admixture (untreated approximately 146 mg/liver)): ~39 mg/liver
